Here are results for 20 molecules from patent US8653096B2, “Chemokine receptor antagonists and methods of use thereof” (Millennium Pharmaceuticals, Inc., priority 2001, dated 2014).

Structures are written as SMILES.

This assay concerns the target T1, RANTES/MIP-1α chemokine receptor (CCR1) in THP-1 cell membranes (Homo sapiens, UniProt P32246).
T1 construct: Membranes were prepared from THP-1 cells (ATCC #TIB202); host or cells: THP-1 cells (membrane preparation)
T1 sequence (P32246 1-355): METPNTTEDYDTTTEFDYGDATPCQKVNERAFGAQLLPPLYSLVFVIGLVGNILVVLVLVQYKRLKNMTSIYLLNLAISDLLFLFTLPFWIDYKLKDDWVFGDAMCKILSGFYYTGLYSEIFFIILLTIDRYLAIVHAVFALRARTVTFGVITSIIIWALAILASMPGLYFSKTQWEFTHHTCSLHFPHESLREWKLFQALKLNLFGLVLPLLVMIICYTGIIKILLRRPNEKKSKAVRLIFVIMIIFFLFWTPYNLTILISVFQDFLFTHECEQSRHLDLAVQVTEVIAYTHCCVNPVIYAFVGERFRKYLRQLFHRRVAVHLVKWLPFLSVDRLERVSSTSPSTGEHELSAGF
The assay is described as follows: Receptor binding assay: 125I-RANTES or 125I-MIP-1α binding to THP-1 cell membranes. The note with it: inhibitor concentration required for 50% inhibition of specific binding; 125I-RANTES or 125I-MIP-1α as ligand, THP-1 cell membranes; read-out: IC50.
As for `COC(=O)C1(C)CN(CCC=C2c3cc(C(C)(C)O)ccc3OCc3ncccc32)CCC1(O)c1ccc(Cl)cc1` (centres unmarked) [Example 481, 4-(4-Chloro-phenyl)-4-hydroxy-1-{3-[7-(hydroxyl-1-methyl-ethyl)-11H-10-oxa-1-aza-dibenzo[a,d]cyclohepten-5-ylidene}-propyl]-3-methyl-piperidine-3-carboxylic acid methyl ester], the IC50 was less than 1 µM. Regarding `CC(C)(O)c1ccc2c(c1)C(=CCCN1CCC(O)(c3ccc(Cl)cc3)C(C)(CO)C1)c1cccnc1CO2` (centres unmarked) [Example 482, 4-(4-Chloro-phenyl)-3-hydroxymethyl-1-{3-[7-(hydroxyl-1-methyl-ethyl)-11H-10-oxa-1-aza-dibenzo[a, d]cyclohepten-5-ylidene]-propyl}-3-methyl-piperidine-4-ol], the IC50 is less than 1 µM. Regarding `CCOCC1(C)CN(CCC=C2c3cc(C(C)(C)O)ccc3OCc3ncccc32)CCC1(O)c1ccc(Cl)cc1` (centres unmarked) [Example 484, 4-(4-Chloro-phenyl)-3-ethoxymethyl-1-{3 [7-(-hydroxy-1-methyl-ethyl)-11H-10-oxa-1-aza-dibenzo[a,d]cyclohepten-5-ylidene]-propyl}-3-methyl-piperidin-4-ol], the half-inhibitory concentration (IC50) is less than 1 µM.

As for `CCOC(=O)COCC1(C)CN(CCC=C2c3cc(C(C)(C)O)ccc3OCc3ncccc32)CCC1(O)c1ccc(Cl)cc1` (centres unmarked) [Example 485, (4-(4-Chloro-phenyl)-4-hydroxy-1-{3 [7-(1-hydroxy-1-methyl-ethyl)-11H-10-oxa-1-aza-dibenzo[a,d]cyclohepten-5-ylidene]-propyl}-3-methyl-piperidin-3-ylmethoxy)-acetic acid ethyl ester], the IC50 is less than 1 µM. Next, `CCN(CC)CCOCC1(C)CN(CCC=C2c3cc(C(C)(C)O)ccc3OCc3ncccc32)CCC1(O)c1ccc(Cl)cc1` (centres unmarked) [Example 486]: less than 1 µM; `CCN(Cc1ccc(Cl)cc1)C1CCN(CCC=C2c3cc(C(C)(C)O)ccc3OCc3ncccc32)CC1` [Example 487, 2-[5-(3-{4-[(4-Chloro-benzyl)ethyl-amino]-piperidin-1-yl}-propylidene)-5,11-dihydro-10-oxa-1-aza-dibenzo[a,d]cyclohepten-7-yl]-propan-2-ol]: less than 1 µM. Next, `CC(C)(O)c1ccc2c(c1)C(=CCCN1CCC(O)(c3ccccc3Cl)CC1)c1cccnc1CO2` [Example 489, 4-(2-Chloro-phenyl)-1-{3-[7-(1-hydroxy-1-methyl-ethyl)-11H-10-oxa-1-azadibenzo[a,d]cyclohepten-5-ylidene]-propyl}-piperidin-4-ol]: less than 10 µM. Take `Cc1cc(Cl)ccc1C1(O)CCN(CCC=C2c3cc(C(C)(C)O)ccc3OCc3ncccc32)CC1` [Example 490, 4-(4-Chloro-2-methyl-phenyl)-1-{3-[7-(1-hydroxy-1-methyl-ethyl)-11H-10-oxa-1-aza-dibenzo[a,d]cyclohepten-5-ylidene]-propyl}-piperidin-4-ol]: the IC50 was less than 1 µM.

Consider `CC(C)(O)c1ccc2c(c1)C(=CCCN1CCC(O)(c3ccc(Cl)c(Cl)c3)CC1)c1cccnc1CO2` [Example 491, 4-(3,4-Dichloro-phenyl)-1-{3-[7-(1-hydroxy-1-methyl-ethyl)-11H-10-oxa-1-aza-dibenzo[a,d]cyclohepten-5-ylidene]-propyl}-piperidin-4-ol], for which the IC50 was less than 1 µM. Take `CC(C)(O)c1ccc2c(c1)C(=CCCN1CCC(O)(c3ccc(Cl)c([N+](=O)[O-])c3)CC1)c1cccnc1CO2` [Example 492, 4-(4-Chloro-3-nitro-phenyl)-1-{3-[7-(1-hydroxy-1-methyl-ethyl)-11H-10-oxa-1-aza-dibenzo[a,d]cyclohepten-5-ylidene]-propyl}-piperidin-4-ol]: the IC50 is less than 10 µM. Consider `CCN(c1ccc(Cl)cc1)C1CCN(CCC=C2c3cc(C(C)(C)O)ccc3OCc3ncccc32)CC1` [Example 493, 2-[5-(3-{4-[(4-Chloro-phenyl)-ethyl-amino]-piperidin-1-yl}-propylidene)-5,11-dihydro-10-oxa-1-aza-dibenzo[a,d]cyclohepten-7-yl]-propan-2-ol], for which the IC50 was less than 10 µM. The same measure for `COC1(c2ccc(Cl)cc2)CCN(CCC=C2c3cc(C(C)(C)O)ccc3OCc3ncccc32)CC1` [Example 494, 2-(5-{3-[4-(4-Chloro-phenyl)-4-methoxy-piperidin-1-yl]-propylidene}-5,11-dihydro-10-oxa-1-aza-dibenzo[a,d]cyclohepten-7-yl)-propan-2-ol]: less than 1 µM. The same measure for `CC(C)(O)c1ccc2c(c1)C(=CCCN1CCC(Oc3ccccc3Cl)CC1)c1cccnc1CO2` [Example 495, 2-(5-{3-[4-(2-Chloro-phenoxy)-piperidin-1-yl]-propylidene}-5,11-dihydro-10-oxa-1-aza-dibenzo[a,d]cyclohepten-7-yl)-propan-2-ol]: less than 1 µM; for `CC(C)(O)c1ccc2c(c1)C(=CCCN1CCC(C(=O)c3ccc(Cl)cc3)CC1)c1cccnc1CO2` [Example 496, (4-Chloro-phenyl)-(1-{3-[7-(1-hydroxy-1-methyl-ethyl)-11H-10-oxa-1-aza-dibenzo[a,d]cyclohepten-5-ylidene]-propyl}-piperidin-4-yl)-methanone]: less than 10 µM; for `CC(C)(O)c1ccc2c(c1)C(=CCCN1CCC(Oc3ccc(C(F)(F)F)cc3)CC1)c1cccnc1CO2` [Example 497, 2-(5-{3-[4-(4-trifluoromethyl-phenoxy)-piperidin-1-yl]-propylidene}-5,11-dihydro-10-oxa-1-aza-dibenzo[a,d]cyclohepten-7-yl)-propan-2-ol]: less than 10 µM.

As for `CC(C)(O)c1ccc2c(c1)C(=CCCN1CCC(N3C(=O)OCC3Cc3ccc(Cl)cc3)CC1)c1cccnc1CO2` (centres unmarked) [Example 498, 4-(4-Chloro-benzyl)-3-(1-{3-[7-(1-hydroxy-1-methyl-ethyl)-11H-10-oxa-1-aza-dibenzo[a,d]cyclohepten-5-ylidene]-propyl}-piperidin-4-yl)-oxazolidin-2-one], the IC50 is less than 10 µM.

Take `C=C(C)c1ccc2c(c1)C(=CCCN1CCC(c3ccc(Cl)cc3)(C(C)O)CC1)c1cccnc1CO2` (centres unmarked) [Example 499, 1-{4-(4-Chloro-phenyl)-1-[3-(7-isopropenyl-11H-10-oxa-1-aza-dibenzo[a,d]cyclohepten-5-ylidene)-propyl]-piperidin-4-yl}-ethanol]: the IC50 was less than 10 µM.

In the case of `COC(=O)CN(Cc1ccc(Cl)cc1)C1CCN(CCC=C2c3cc(C(C)(C)O)ccc3OCc3ncccc32)CC1` [Example 500, [(4-Chloro-benzyl)-(1-{3-[7-(1-hydroxy-1-methyl-ethyl)-11H-10-oxa-1-aza-dibenzo[a,d]cyclohepten-5-ylidene]-propyl}-piperidin-4-yl)-amino]-acetic acid methyl ester], the IC50 was less than 10 µM. The same measure for `CC(C)(O)c1ccc2c(c1)C(=CCCN1CCC(N(CC(=O)O)Cc3ccc(Cl)cc3)CC1)c1cccnc1CO2` [Example 501, [(4-Chloro-benzyl)-(1-{3-[7-(1-hydroxy-1-methyl-ethyl)-11H-10-oxa-1-aza-dibenzo[a,d]cyclohepten-5-ylidene]-propyl}-piperidin-4-yl)-amino]-acetic acid]: less than 10 µM; for `CC(C)(O)c1ccc2c(c1)C(=CCCN1CC[C@](O)(c3ccc(Cl)cc3)C(C)(C)C1)c1cccnc1CO2` [Example 502, S-4-(4-Chloro-phenyl)-1-{3-[7-(1-hydroxy-1-methyl-ethyl)-11H-10-oxa-1-aza-dibenzo[a,d]cyclohepten-5-ylidene]-propyl}-3,3-dimethyl-piperidin-4-ol]: less than 1 µM.

Usually IC50 stands for the midpoint of a concentration-inhibition curve.
